Data: PMC8238522 (Biochemical Journal, 2021)

What was measured:
Assay in all cases: spectrophotometric NADH formation at […] nm, Hill fit
Format in all cases: biochemical
[1] = molecular target: T1, AmtriPGDH1 (Amborella trichopoda, UniProt U5D351)
T1 sequence (U5D351 73-618): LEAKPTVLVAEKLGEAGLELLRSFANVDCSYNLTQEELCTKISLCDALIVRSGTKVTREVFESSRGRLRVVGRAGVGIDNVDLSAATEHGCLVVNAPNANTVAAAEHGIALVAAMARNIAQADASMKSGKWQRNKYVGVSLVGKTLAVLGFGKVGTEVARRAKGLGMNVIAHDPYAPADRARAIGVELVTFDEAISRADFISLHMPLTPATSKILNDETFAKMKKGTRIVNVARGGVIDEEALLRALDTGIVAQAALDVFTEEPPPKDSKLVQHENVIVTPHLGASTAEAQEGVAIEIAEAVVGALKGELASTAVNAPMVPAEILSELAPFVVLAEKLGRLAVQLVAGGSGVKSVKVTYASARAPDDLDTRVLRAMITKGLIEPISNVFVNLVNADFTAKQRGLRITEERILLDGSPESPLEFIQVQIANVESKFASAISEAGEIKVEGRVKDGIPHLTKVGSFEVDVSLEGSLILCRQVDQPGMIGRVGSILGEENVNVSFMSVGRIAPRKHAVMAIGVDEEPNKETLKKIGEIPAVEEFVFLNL

[2] = molecular target: T2, OsPGDH1 (Oryza sativa, UniProt B7F6I8)
T2 sequence (B7F6I8 68-613): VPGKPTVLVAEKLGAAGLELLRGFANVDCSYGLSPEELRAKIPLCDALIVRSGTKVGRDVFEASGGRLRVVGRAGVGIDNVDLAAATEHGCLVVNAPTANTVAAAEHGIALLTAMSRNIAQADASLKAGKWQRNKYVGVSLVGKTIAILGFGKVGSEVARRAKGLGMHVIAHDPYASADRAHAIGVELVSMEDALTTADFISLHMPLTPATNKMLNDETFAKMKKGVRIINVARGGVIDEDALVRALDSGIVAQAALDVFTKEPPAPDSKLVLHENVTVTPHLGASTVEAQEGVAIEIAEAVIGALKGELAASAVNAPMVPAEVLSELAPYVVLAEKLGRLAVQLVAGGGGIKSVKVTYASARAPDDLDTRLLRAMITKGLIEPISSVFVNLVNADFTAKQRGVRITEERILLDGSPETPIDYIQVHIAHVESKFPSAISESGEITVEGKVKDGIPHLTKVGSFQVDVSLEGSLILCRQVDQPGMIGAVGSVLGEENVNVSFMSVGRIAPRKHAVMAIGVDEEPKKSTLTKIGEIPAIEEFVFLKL

[3] = molecular target: T3, OsPGDH2 (Oryza sativa, UniProt B7FAD2)
T3 sequence (B7FAD2 64-621): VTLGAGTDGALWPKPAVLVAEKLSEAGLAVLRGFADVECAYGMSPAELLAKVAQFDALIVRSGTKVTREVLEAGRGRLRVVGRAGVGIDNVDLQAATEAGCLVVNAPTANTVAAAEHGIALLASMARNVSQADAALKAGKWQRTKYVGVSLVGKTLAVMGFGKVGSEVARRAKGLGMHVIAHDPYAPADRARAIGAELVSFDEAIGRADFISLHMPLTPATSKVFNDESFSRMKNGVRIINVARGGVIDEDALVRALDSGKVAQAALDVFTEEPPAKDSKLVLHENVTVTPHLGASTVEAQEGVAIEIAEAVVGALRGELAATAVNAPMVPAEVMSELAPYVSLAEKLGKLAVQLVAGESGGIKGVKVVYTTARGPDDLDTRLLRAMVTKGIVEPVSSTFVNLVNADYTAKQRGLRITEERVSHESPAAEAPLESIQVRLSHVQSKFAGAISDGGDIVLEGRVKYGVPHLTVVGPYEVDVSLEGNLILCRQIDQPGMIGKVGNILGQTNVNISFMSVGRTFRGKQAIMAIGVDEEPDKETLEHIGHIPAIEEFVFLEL

| EC50 [1] [µM] | EC50 [2] [µM] | EC50 [3] [µM] | SMILES |
| --- | --- | --- | --- |
| 20 ± 2 | 33 ± 3 | – | N[C@@H](CCS)C(=O)O [L-Homocysteine] |
| 1200 ± 100 | 6400 ± 600 | – | N[C@@H](CO)C(=O)O [L-Serine] |
| – | – | 950 ± 40 | C[C@H](N)C(=O)O [L-Alanine] |
| 750 ± 50 | 640 ± 30 | – | CSCC[C@H](N)C(=O)O [L-Methionine] |
